# Experimental data from US20220411397A1, “ANALOGUES OF N-ACYL-HOMOSERINE LACTONES AND PHARMACEUTICAL COMPOSITION COMPRISING SAME” (SORBONNE UNIVERSITE, priority 2019, published 2022).
# Like-named read-outs stand apart in the source and are kept apart here.
# Assays:
# human lymphocytes = test: Inhibition of IL-2 secretion by human lymphocytes stimulated by CD2, CD3 and CD28; type: cell-based; details: test of FIG. 5
# Caco-2/TC7 cells [1] = test: Cytotoxicity test, LDH secretion, Caco-2/TC7; type: cell-based; details: 1-100 μM; for measured cytotoxicity (LDH): Caco-2/TC7
# Description: (§1) 1.2.6. […] To measure the concentration of LDH in the cell lysate, 800 μL of NADH was added to 10 μL of […] and 190 μL of 0.1 M PBS in a plastic cuvette, and the decrease in the absorbance at 340 nm was monitored for 1 min. […] The percentage of cytotoxicity could be established with the formula: […]
# (§2) The cytotoxicity of the tested and control compounds was evaluated using a measurement test of the LDH (Lactate Dehydrogenase) secretion. This test is based on the measurement of the amount of LDH secreted by the cells in their supernatant, compared to the amount of LDH that will remain in the intracellular compartment. This ratio provides an indication of the membrane damage suffered by the cells, and thus of the cytotoxicity of the compound.
# (§3) Two methods were used to perform this test: the measurement using an extemporaneously prepared pyruvate/NADH solution, or using the Cytotoxicity Detection Kit^PLUS(LDH) from the manufacturer Roche (Sigma-Aldrich).
# (§4) Pyruvate/NADH method: pyruvate/NADH solution prepared with 4.1 mg pyruvic acid (0.62 mM) and 7.7 mg NADH (0.18 mM) in 60 ml of 0.1M PBS (pH 7.4).
# (§5) For the measurement of the LDH concentration in the supernatants, 800 μL of NADH was added to 200 μL of supernatant in plastic spectrometry cuvettes, and the decrease in absorbance of the final solution was read at 340 nm for 1 min. For the measurement of the LDH concentration in the cell lysates, 800 μL of NADH was added to 10 μL of cell lysates and 190 μL of 0.1M PBS in plastic spectrometry cuvettes, and the decrease in absorbance of the final solution was read at 340 nm for 1 min. The percentage of LDH secreted was then calculated by the ratio of the decay slopes of the absorbance of the supernatants and of the cell lysates (respectively).
# (§6) Cytotoxicity Detection Kit^PLUS (LDH) method: absorbance test performed according to the manufacturer's instructions. The percentage of LDH secreted was then calculated by the formula: […]
# human keratinocytes = test: Inhibition of IL-8 secretion by human keratinocytes stimulated by IL-17 and TNF-α; type: cell-based; details: test of FIG. 4
# Raw264.7 murine cells = test: Cytotoxicity test, LDH secretion, Raw264.7; type: cell-based; details: as early as 50 μM; basal and stimulated conditions
# Description: as §1, §2, §3, §4, §5, §6
# E. coli K12 strain = test: Bactericidal dosage on the E. coli K12 strain (absorbance at 600 nm); type: cell-based; details: for comparative survival of E. coli K12: all concentrations, maximum 100 μM shown, 18 h
# Description: 1.1.4. Bactericidal Dosage • The K12 strain of E. coli was grown on agar on day 0 and a colony was transferred to the LYBHI liquid bacterial culture medium on day 1. On day 2, the colony was diluted 1:100 in LYBHI medium and amplified for 18 hours before transfer to an opaque 96-well plate. In each well, LYBHI, controls or increasing doses of tested molecules and bacteria were distributed. The absorbance at 600 nm was read at start-up (t=0) and after an 18-hour incubation. The raw absorbance values were corrected using the absorbance of solutions without bacteria. All experiments were performed twice, each with 4 replicates.
# The E. coli K12 strain was cultured at D0 on agar gel, and then a selected colony was transferred to a liquid bacterial culture LYBHI medium at D1. At day 2, this colony was diluted 1:100 in LYBHI medium, and maintained for 18 hours for expansion before distribution in an opaque 96-well plate. In each well were distributed: LYBHI medium, bacterial culture, and test or control compounds. The absorbance of the wells was read at 600 nm at t0 and t18h. The raw absorbance values were corrected against the absorbance of the wells containing only LYBHI medium without bacteria or compounds.
# Caco-2/TC7 cells [2] = test: Stimulation of Caco-2/TC7 cells by IL-1β, IL-8 secretion (ELISA); type: cell-based, human
# Excerpt: 1.1.1. The Caco-2/TC7 Cell Line • The Caco-2 cell line is derived from a human colon adenocarcinoma and represents a cell culture model of enterocytes lining the epithelium of the small intestinal. […] During the exponential growth phase (from seeding to confluence), the cells remain undifferentiated. At confluence, they can spontaneously (in the absence of differentiation inducers) differentiate and progressively polarize. The differentiation process, which is a growth-related mechanism, is maximal at the end of confluence (stationary phase of the growth curve). • The cells develop a brush border at the apical pole containing microvilli and with characteristic enterocytic enzymes, such as hydrolases. • In accordance with the published literature, the Caco-2/TC7 cells in our experiments were seeded at 10^5 cells/well (equivalent to 10-12×10^3 cells/cm^2) in 6-well plastic culture plates. The cells were maintained in a glucose-rich medium (high glucose in the DMEM GlutaMAX medium 4.5 g/I glucose) supplemented with 20% heat-inactivated foetal calf serum, 1% nonessential amino acids NEAA, and 1% penicillin streptomycin. The cells were grown at 37° C. in a 10% CO2/air atmosphere. The medium was changed every day. Under these conditions, the cells were confluent on day 6. On day 17, the cells were serum-starved, and were used on day 18.
# 1.2.1. Stimulation of Caco-2/TC7 with Cytokines • The Caco-2/TC7 cells were seeded in 6-well plates at 100,000 cells/well and grown for 18 days. On day 17, the cells were serum-starved, which means that the cell medium was replaced with a foetal calf serum-free medium, and used on day 18. • The stimulation medium was composed of a medium referred to as “starvation medium”, i.e. without foetal calf serum (DMEM GlutaMAX, 1% NEAA, 1% penicillin-streptomycin) with 100 μM of 2-HQ. The cells were incubated for 18 h at 37° C. with 2 ml of stimulation medium containing 0.1% DMSO (negative control) or stimulation medium containing the compounds tested at desired concentrations, with or without proinflammatory cytokines to induce an inflammation. To induce the inflammation, either the IL-1β at 25 ng/ml or the combination of TNF-α and IFN-γ at 50 ng/ml each were used. After 18 h, the supernatants were collected and stored at −80° C. before analysis by ELISA test. The cells were washed with 1 ml of PBS 1×/well, and lysed in 100 μl of PBS 1× containing 1% Triton X-100. The cells were harvested by scraping and stored at −80° C. before the quantification of the protein. The dosing of the LDH was performed immediately before freezing. • All the experiments on the cells were performed in triplicates.
# 1.2.4. Quantification of the Human Cytokines by ELISA • The levels of the proinflammatory cytokine IL-8 produced by the cells were determined in the cell supernatants and/or cell lysates using the commercially available IL-8 ELISA detection kit (Duoset Human C×CL8/IL-8, ref. DY208) provided by R & D Systems (Minneapolis, Minn., USA) according to the instructions of the manufacturer. • All the cytokine levels were first normalized to the protein content determined in the corresponding cell lysates. Then, to compare the experiments, they could be further normalized using the activated control condition (DMSO+cytokines) as the 100% response.
# LasR receptor = target: T1, LasR receptor (Pseudomonas aeruginosa, UniProt P25084); test: Activation of the LasR receptor on bacterial reporter strain E. coli pSB1075 (bioluminescence); type: cell-based
# T1 construct: expressed in transfected cells; host or cells: Escherichia coli carrying plasmid pSB1075
# T1 sequence (P25084 whole entry): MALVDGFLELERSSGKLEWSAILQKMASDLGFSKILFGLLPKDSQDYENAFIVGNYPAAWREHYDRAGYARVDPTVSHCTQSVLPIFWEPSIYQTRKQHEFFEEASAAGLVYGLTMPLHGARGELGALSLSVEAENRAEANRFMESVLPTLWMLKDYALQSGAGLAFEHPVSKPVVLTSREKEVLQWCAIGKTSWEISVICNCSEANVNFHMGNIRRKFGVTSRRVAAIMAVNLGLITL
# Excerpt: 1.1.3. The Bacterial Reporter Strain E. coli pSB1075 • A bacterial reporter strain of the Quorum Sensing was used to study the ability of the molecules to be recognized by the Pseudomonas aeruginosa AHL receptor (LasR) and induce an activation. […] This bioluminescent strain was modified by addition of a plasmid pSB1075. This plasmid contains genes encoding both tetracycline resistance and the expression of the LasR AHL receptor from the Pseudomonas aeruginosa bacteria, as well as a fusion gene derived from the LasR promoter and the luxCDABE gene from Photorhabdus luminescence. The bacterial strain was grown in the LB medium supplemented with 5 μg/ml tetracycline to exert a selection pressure and ensure that only the desired strain was amplified. The fusion gene included in the plasmid gives the bacteria the ability to emit a bioluminescence when the LasR receptor is activated, and provides the user with a robust test for the molecular screening. […] On day 1, the culture was diluted 1:100 (P1) in 10 ml of LB medium supplemented with 5 μg/ml tetracycline and maintained for 24 hours at 37° C. under stirring at 70 rpm. On day 2, the experiment took place: a bacterial suspension extemporaneously diluted 1:10 in LB medium supplemented with 5 μg/ml tetracycline (P2) was dispensed into a black opaque 96-well plate and incubated for 4 hours with a range of AHL concentrations or controls until the resulting luminescence was read at the end point. All experiments were performed in triplicates.
# 1.3. […] This bioluminescent strain was developed by the addition of a plasmid pSB1075 containing genes encoding the tetracycline resistance and the expression of the LasR AHL receptor, as well as a fusion gene of the LasR promoter and the luxCDABE gene of Photorhabdus luminescence. • On day 1, a 1/100 dilution of the bacterial strain (P1) was grown for 24 hours at 37° C. under stirring (70 rpm) in a LB medium containing 5 μg/ml tetracycline (pressure selective). On day 2, P1 was diluted 1:10 in the same medium to obtain P2. In a black 96-well plate were placed 200 μL of P2 and 10 μL of the short chain compound (medium, water and DMSO for the negative controls, C4-HSL as positive control, and the test sample at the desired concentration). The plate was incubated for 4 hours at 37° C. under stirring at 70 rpm. […] After that, the incubation was continued according to the conventional protocol, with the test compound at the desired concentrations.
Compound,activity on IL-2 secretion by lymphocytes (human lymphocytes),measured cytotoxicity (LDH) (Caco-2/TC7 cells [1]) [%],activity on IL-8 secretion by keratinocytes (human keratinocytes),"secreted LDH, Raw264.7 (Raw264.7 murine cells)",comparative survival of E. coli K12 (E. coli K12 strain),further results
"CCCCCCCCCC(=O)CC(=O)N[C@H]1CCOC1=O [3-oxo-C12-HSL, N-(3(S)-oxododecanoyl) homoserine lactone, reference compound]",inactive,≤ 2.5,inactive,an increase in secreted LDH,–,–
"CCCCCCCCCC(=O)CC(=O)NC1CCSC1=O (racemic) [I-1, 3-oxo-N-(tetrahydro-2-oxo-3-thienyl)-dodecanamide]",–,–,–,–,No significant differences,"activity on IL-1β-stimulated Caco-2/TC7 cells compared with natural 3-oxo-C12 HSL (Caco-2/TC7 cells [2]; IL-1β stimulation, no concentration range stated): an activity equivalent to that of the natural 3-oxo-C12 HSL; activity on IL-1β-stimulated Caco-2/TC7 cells compared with natural 3-oxo-C12 HSL (Caco-2/TC7 cells [2]; at the 100 μM dose): more active than the latter; EC50 (LasR receptor): 0.125 µM"
"CC/C=C\C/C=C\CCC(=O)CC(=O)N[C@H]1CCOC1=O [3-oxo-C12:2-HSL, reference compound]",inactive,≤ 1.5,inactive,an increase in secreted LDH,–,"bactericidal effect on E. coli K12 (E. coli K12 strain; 1-100 μM, 18 h of incubation): No toxic effect; tolerance, Caco-2/TC7 (Caco-2/TC7 cells [1]; presence and absence of pro-inflammatory cytokines): well tolerated"
"CCCCCCCCCC(=O)CC(=O)N[C@H]1CCSC1=O [I-3, 3-oxo N-[(3S)-tetrahydro-2-oxo-3-thienyl]-dodecanamide]",–,–,–,–,No significant differences,"decrease in the inflammatory secretion (Caco-2/TC7 cells [2]; at 5 μM, IL-1β-stimulated Caco-2/TC7): 27%"
"CCCC(=O)N[C@H]1CCOC1=O [C4-HSL, reference compound]",–,–,–,–,–,"EC50 (LasR receptor; bacterial reporter strain, read-out: EC50 of LasR receptor activation): > 1000 µM"
